In ChEMBL document CHEMBL1155519, “Discovery of N-phenyl-4-(thiazol-5-yl)pyrimidin-2-amine aurora kinase inhibitors” (J Med Chem, 2010):
The source made the active and inactive calls. The calls are words filed in the database; no cut-off is given here.

Key:
Aurora kinase A = molecular target: T1, Aurora kinase A (Homo sapiens, UniProt O14965); assay: Inhibition of human recombinant Aurora A after 30 mins
T1 sequence (O14965 whole entry): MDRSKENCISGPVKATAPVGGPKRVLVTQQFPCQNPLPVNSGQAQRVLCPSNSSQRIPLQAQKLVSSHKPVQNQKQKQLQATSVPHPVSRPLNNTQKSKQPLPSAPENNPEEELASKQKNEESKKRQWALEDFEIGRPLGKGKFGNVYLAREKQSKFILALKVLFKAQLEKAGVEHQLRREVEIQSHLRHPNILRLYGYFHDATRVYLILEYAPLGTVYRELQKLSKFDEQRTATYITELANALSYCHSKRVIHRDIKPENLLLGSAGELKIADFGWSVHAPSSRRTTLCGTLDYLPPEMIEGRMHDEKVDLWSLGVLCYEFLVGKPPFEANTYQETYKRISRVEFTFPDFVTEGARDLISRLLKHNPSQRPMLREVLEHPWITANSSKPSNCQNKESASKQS

A2780 = assay: Cytotoxicity against human A2780 cells after 96 hrs by MTT assay; type: functional, cell-based; conditions: A2780, 96 h
[1] = molecular target: Cyclin-dependent kinase 2 (Homo sapiens, UniProt P24941)
Aurora kinase B = Aurora kinase B (Homo sapiens, UniProt Q96GD4); assay: Inhibition of human recombinant Aurora B after 60 mins
Sequence of Aurora kinase B (Q96GD4 whole entry): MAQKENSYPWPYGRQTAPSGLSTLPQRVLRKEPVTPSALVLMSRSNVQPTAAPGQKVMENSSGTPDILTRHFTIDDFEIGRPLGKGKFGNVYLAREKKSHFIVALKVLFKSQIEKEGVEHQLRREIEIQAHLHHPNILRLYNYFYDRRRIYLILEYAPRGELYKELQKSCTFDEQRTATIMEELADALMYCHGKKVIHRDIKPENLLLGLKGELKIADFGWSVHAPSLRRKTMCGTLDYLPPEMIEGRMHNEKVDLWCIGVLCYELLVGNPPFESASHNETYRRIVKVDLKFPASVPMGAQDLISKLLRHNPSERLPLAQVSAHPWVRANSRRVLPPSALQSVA

[2] = molecular target: Cyclin-dependent kinase 1 (Homo sapiens, UniProt P06493); assay: Inhibition of CDK1
Sequence of Cyclin-dependent kinase 1 (P06493 whole entry): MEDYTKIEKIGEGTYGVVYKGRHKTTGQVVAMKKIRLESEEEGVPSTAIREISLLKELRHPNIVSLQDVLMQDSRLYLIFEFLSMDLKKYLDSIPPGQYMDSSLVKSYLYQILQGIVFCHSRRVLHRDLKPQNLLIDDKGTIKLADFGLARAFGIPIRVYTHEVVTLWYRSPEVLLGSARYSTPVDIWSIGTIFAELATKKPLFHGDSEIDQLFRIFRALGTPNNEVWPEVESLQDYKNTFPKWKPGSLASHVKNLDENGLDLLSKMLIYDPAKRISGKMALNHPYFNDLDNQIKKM

MIA PaCa-2 = assay: Cytotoxicity against human MIAPaCa2 cells after 96 hrs by MTT assay; type: functional, cell-based; conditions: MIA PaCa-2, 96 h
[3] = molecular target: Cyclin-dependent kinase 4 (Homo sapiens, UniProt P11802); assay: Inhibition of CDK4
Sequence of Cyclin-dependent kinase 4 (P11802 whole entry): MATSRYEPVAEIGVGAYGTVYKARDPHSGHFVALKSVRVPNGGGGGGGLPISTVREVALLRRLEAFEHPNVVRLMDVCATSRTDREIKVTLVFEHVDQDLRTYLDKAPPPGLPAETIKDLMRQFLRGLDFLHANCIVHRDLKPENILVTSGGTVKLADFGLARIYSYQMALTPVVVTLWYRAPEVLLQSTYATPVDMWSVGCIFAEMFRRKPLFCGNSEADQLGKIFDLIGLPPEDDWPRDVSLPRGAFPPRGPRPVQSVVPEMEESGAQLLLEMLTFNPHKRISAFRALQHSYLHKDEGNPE

[4] = Inhibition of Aurora kinase in human A549 cells assessed as concentration required for half-maximal inhibition of histone H3 serine-10 phosphorylation after 7 hrs immunofluorescence microscopy; type: cell-based; conditions: A549, 7 h
[5] = molecular target: Cyclin-dependent kinase 7 (Homo sapiens, UniProt P50613); assay: Inhibition of CDK7
Sequence of Cyclin-dependent kinase 7 (P50613 whole entry): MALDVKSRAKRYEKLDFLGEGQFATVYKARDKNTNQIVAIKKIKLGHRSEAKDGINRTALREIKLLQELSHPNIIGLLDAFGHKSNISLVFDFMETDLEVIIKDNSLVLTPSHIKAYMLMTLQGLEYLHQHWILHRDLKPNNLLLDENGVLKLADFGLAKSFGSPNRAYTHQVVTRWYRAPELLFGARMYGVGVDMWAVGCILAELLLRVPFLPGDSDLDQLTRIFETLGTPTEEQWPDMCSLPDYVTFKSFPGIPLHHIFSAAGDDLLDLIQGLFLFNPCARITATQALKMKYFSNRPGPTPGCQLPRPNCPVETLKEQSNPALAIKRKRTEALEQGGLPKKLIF

[6] = molecular target: Cyclin-dependent kinase 9 (Homo sapiens, UniProt P50750); assay: Inhibition of CDK9
Sequence of Cyclin-dependent kinase 9 (P50750 whole entry): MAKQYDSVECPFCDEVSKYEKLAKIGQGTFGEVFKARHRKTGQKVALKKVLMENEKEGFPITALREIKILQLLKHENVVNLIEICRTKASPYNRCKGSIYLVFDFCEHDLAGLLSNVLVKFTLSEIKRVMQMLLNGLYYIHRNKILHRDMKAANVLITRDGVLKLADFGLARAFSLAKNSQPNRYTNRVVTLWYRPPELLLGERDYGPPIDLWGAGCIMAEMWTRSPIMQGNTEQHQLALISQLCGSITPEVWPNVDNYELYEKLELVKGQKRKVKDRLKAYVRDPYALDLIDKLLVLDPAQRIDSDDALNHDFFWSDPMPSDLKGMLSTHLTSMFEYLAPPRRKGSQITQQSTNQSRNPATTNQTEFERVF

U2OS [7] = assay: Inhibition of Aurora kinase in asynchronous human U2OS cells assessed as reduction of histone H3 serine-10 phosphorylation at 150 nM after 7 hrs immunofluorescence microscopy; type: cell-based
U2OS [8] = assay: Inhibition of Aurora kinase in nocodazole-synchronized human U2OS cells assessed as reduction of histone H3 serine-10 phosphorylation at 0.07 to 10 uM after 2 hrs immunofluorescence microscopy; type: cell-based
MCF7 [9] = assay: Induction of p53 protein expression in human MCF7 cells at 0.07 to 10 uM after 7 hrs by fluorescent microscopy; type: functional, cell-based
MCF7 [10] = assay: Induction of p53 protein expression in human MCF7 cells at 150 nM after 7 hrs by fluorescent microscopy; type: functional, cell-based

Ki (Aurora kinase A) [nM] | Ki [1] [nM] | Ki (Aurora kinase B) [nM] | Ki [2] [nM] | Ki [3] [nM] | IC50 [4] [nM] | Ki [5] [nM] | Ki [6] [nM] | Structure (SMILES) | IC50 (A2780) [nM] | IC50 (MIA PaCa-2) [nM] | Activity (U2OS [7]) | inhibition (U2OS [8]) | Activity (MCF7 [9]) | Activity (MCF7 [10])
8.2 | 432 | 13 | 1890 | 929 | 360 | 2800 | 1150 | CC(=O)N1CCN(c2ccc(Nc3nccc(-c4sc(C)nc4C)n3)cc2)CC1 | 303 | 604 |  |  |  | 
7.6 | 522 | 3.8 | > 10000 | 1250 | 590 | 2150 | 264 | CC(=O)N1CCN(c2ccc(Nc3nccc(-c4sc(N)nc4C)n3)cc2)CC1 | 240 | 493 |  |  |  | 
3 | 463 | 6 | 1220 | > 10000 | 1880 | 1390 | 564 | CCNc1nc(C)c(-c2ccnc(Nc3cc(OC)c(OC)c(OC)c3)n2)s1 | 389 | 994 | inactive | Active | inactive | 
19 | 156 | 9.4 | 3930 | 943 | 3700 | > 10000 | 2610 | CNc1nc(C)c(-c2ccnc(Nc3ccc(N4CCOCC4)cc3)n2)s1 | 144 | 273 | inactive | Active | inactive | 
1 | 256 | 3 | 367 | 955 | 280 | 370 | 6 | CNc1nc(C)c(-c2ccnc(Nc3cc(OC)c(OC)c(OC)c3)n2)s1 | 24 | 62 | inactive | Active | inactive | 
 |  |  |  |  |  |  |  | Cc1nc(N)sc1-c1ccnc(Nc2cccc([N+](=O)[O-])c2)n1 | 48 | 139 | Active | Active |  | Active
9.2 | 3970 | 18 | > 10000 | > 10000 | 1110 | > 10000 | 1470 | Cc1nc(C)c(-c2ccnc(Nc3ccc(N4CCN(S(C)(=O)=O)CC4)cc3)n2)s1 | 298 | 608 |  |  |  | 

Structure (SMILES) | Ki (Aurora kinase A) [nM] | Ki [1] [nM] | Ki (Aurora kinase B) [nM] | Ki [2] [nM] | Ki [3] [nM] | IC50 [4] [nM] | Ki [5] [nM] | Ki [6] [nM] | IC50 (A2780) [nM] | IC50 (MIA PaCa-2) [nM] | Activity (U2OS [7]) | inhibition (U2OS [8]) | Activity (MCF7 [9]) | Activity (MCF7 [10])
Cc1nc(C)c(-c2ccnc(Nc3ccc(N)cc3)n2)s1 | 31 | 168 |  | 769 | 807 | 940 | 2560 | 337 | 584 | 1230 | Active | Active | inactive | 
